pKi: −log10 of the molar value.
Experiments:
[1] = molecular target: Adenosine receptors; A1 & A2 (Rattus norvegicus) (UniProt P29276+P25099+P30543); assay: Ratio of Ki values of A1 adenosine and A2 adenosine receptor; format: protein assay
Adenosine receptor A1 = molecular target: T1, Adenosine receptor A1 (Rattus norvegicus, UniProt P25099); assay: Binding affinity towards adenosine A1 receptor
T1 sequence (P25099 whole entry): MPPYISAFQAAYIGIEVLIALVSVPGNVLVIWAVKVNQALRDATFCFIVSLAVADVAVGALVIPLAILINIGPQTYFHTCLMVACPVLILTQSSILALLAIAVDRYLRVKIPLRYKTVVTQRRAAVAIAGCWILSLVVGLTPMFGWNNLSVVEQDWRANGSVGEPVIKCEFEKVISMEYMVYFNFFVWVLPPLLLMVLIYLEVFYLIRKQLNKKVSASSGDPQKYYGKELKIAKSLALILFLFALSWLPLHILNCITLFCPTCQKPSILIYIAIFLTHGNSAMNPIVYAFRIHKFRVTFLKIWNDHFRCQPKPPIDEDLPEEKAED

Adenosine A2 receptor = Adenosine A2 receptor (Rattus norvegicus, UniProt P29276+P30543); assay: Binding affinity towards adenosine A2 receptor; format: protein assay
Rattus norvegicus [2] = assay: Antihypertensive activity measured as change in blood pressure for a 10-h after 10 mg/kg oral dose in rat; format: functional
Rattus norvegicus [3] = assay: Antihypertensive activity measured as change in heart rate was measured for a 10-h after 10 mg/kg oral dose; format: functional

| SMILES | Ratio [1] | pKi (Adenosine receptor A1) | Ki (Adenosine A2 receptor) [nM] | Change (Rattus norvegicus [2]) [%] | Change (Rattus norvegicus [3]) [%] | Change (Rattus norvegicus [2]; 10 mg/kg) [%] | Change (Rattus norvegicus [3]; 10 mg/kg) [%] |
| --- | --- | --- | --- | --- | --- | --- | --- |
| OC[C@H]1O[C@@H](n2cnc3c(N[C@@H]4CCCc5ccccc54)ncnc32)[C@H](O)[C@@H]1O | 7.1 | 7.64 | 163 | -57 | -30 |  |  |
| OC[C@H]1O[C@@H](n2cnc3c(N[C@@H]4CCc5ccccc54)ncnc32)[C@H](O)[C@@H]1O | 18.6 | 7.65 | 412 | -37 | -18 |  |  |
| COc1ccc2c(c1)C(Nc1ncnc3c1ncn3[C@@H]1O[C@H](CO)[C@@H](O)[C@H]1O)CCC2 (single isomer, unassigned; isomer B) [listing 1 of 2 here] |  | 7.92 | 274 |  |  | -44 | 37 |
| COc1ccc2c(c1)C(Nc1ncnc3c1ncn3[C@@H]1O[C@H](CO)[C@@H](O)[C@H]1O)CCC2 (single isomer, unassigned; isomer B) [listing 2 of 2 here] | 22.7 |  |  |  |  |  |  |
| COc1ccc2c(c1)CCC2Nc1ncnc2c1ncn2[C@@H]1O[C@H](CO)[C@@H](O)[C@H]1O (single isomer, unassigned; isomer b) [listing 1 of 2 here] |  | 7.38 | 1450 |  |  | -25 | -11 |
| OC[C@H]1O[C@@H](n2cnc3c(NCC4=CCCc5ccccc54)ncnc32)[C@H](O)[C@@H]1O | 0.53 | 7.00 | 53.4 | -39 | 16 |  |  |
| COc1cc2c(c(OC)c1OC)C(Nc1ncnc3c1ncn3[C@@H]1O[C@H](CO)[C@@H](O)[C@H]1O)CC2 (stereo not given in full) | 32.6 | 5.82 | 49710 | <10 | <10 |  |  |
| COc1ccc2c(c1)CCC2Nc1ncnc2c1ncn2[C@@H]1O[C@H](CO)[C@@H](O)[C@H]1O (single isomer, unassigned; isomer A) [listing 1 of 2 here] | 120 |  |  |  |  |  |  |
| CCCOc1ccc2c(c1)C(Nc1ncnc3c1ncn3[C@@H]1O[C@H](CO)[C@@H](O)[C@H]1O)CCC2 (stereo not given in full) | 95.5 | 6.30 | 48290 | <10 | 36 |  |  |
| CC(C)Oc1cccc2c1CCCC2Nc1ncnc2c1ncn2[C@@H]1O[C@H](CO)[C@@H](O)[C@H]1O (stereo not given in full) | 7.3 | 7.06 | 642 | -19 | 24 |  |  |
| OC[C@H]1O[C@@H](n2cnc3c(NC4CCCc5ccc(OCc6ccccc6)cc54)ncnc32)[C@H](O)[C@@H]1O (stereo not given in full) | 12.4 | 5.12 | 95100 | -30 | 20 |  |  |
| CCCCOc1ccc2c(c1)CCC2Nc1ncnc2c1ncn2[C@@H]1O[C@H](CO)[C@@H](O)[C@H]1O (stereo in doubt; 15) [listing 1 of 2 here] | 126 |  |  |  |  |  |  |
| CCCCOc1ccc2c(c1)CCC2Nc1ncnc2c1ncn2[C@@H]1O[C@H](CO)[C@@H](O)[C@H]1O (single isomer, unassigned; isomer A) [listing 1 of 2 here] |  | 7.36 | 103200 |  |  | <10 | 15 |
| CCCOc1cccc2c1CCCC2Nc1ncnc2c1ncn2[C@@H]1O[C@H](CO)[C@@H](O)[C@H]1O (stereo not given in full) | 4 | 7.09 | 327 | -27 | 16 |  |  |
| OC[C@H]1OC(n2cnc3c(NCC4(O)CCCc5ccccc54)ncnc32)[C@H](O)[C@@H]1O (stereo not given in full) | 31.4 | 7.21 | 1922 | <10 | <10 |  |  |
| COc1cccc2c1CCCC2Nc1ncnc2c1ncn2[C@@H]1O[C@H](CO)[C@@H](O)[C@H]1O (stereo not given in full) | 9.2 | 7.63 | 218 | -52 | -31 |  |  |
| COc1ccc2c(c1)CCC2Nc1ncnc2c1ncn2[C@@H]1O[C@H](CO)[C@@H](O)[C@H]1O (stereo in doubt; 4) [listing 1 of 2 here] | 73 |  |  |  |  |  |  |
| COc1ccc2c(c1)CCC2Nc1ncnc2c1ncn2[C@@H]1O[C@H](CO)[C@@H](O)[C@H]1O (single isomer, unassigned; isomer A) [listing 2 of 2 here] |  | 6.63 | 28260 |  |  | <10 | <10 |
| OC[C@H]1O[C@@H](n2cnc3c(NCC4CCc5ccccc54)ncnc32)[C@H](O)[C@@H]1O (stereo not given in full) | 12.9 | 8.28 | 66.7 | -40 | -15 |  |  |
| OC[C@H]1O[C@@H](n2cnc3c(NCC4CCCc5ccccc54)ncnc32)[C@H](O)[C@@H]1O (stereo not given in full) | 5.2 | 7.76 | 91.7 | <10 | 21 |  |  |
| CCCCCOc1ccc2c(c1)CCC2Nc1ncnc2c1ncn2[C@@H]1O[C@H](CO)[C@@H](O)[C@H]1O (stereo not given in full) | 120 | 6.98 | 12480 | -47 | -20 |  |  |

| SMILES | Ratio [1] | pKi (Adenosine receptor A1) | Ki (Adenosine A2 receptor) [nM] | Change (Rattus norvegicus [2]) [%] | Change (Rattus norvegicus [3]) [%] | Change (Rattus norvegicus [2]; 10 mg/kg) [%] | Change (Rattus norvegicus [3]; 10 mg/kg) [%] |
| --- | --- | --- | --- | --- | --- | --- | --- |
| OC[C@H]1O[C@@H](n2cnc3c(NC4CCc5cc(Cl)ccc54)ncnc32)[C@H](O)[C@@H]1O (stereo not given in full) | 44 | 7.39 | 1808 | -24 | -24 |  |  |
| OC[C@H]1O[C@@H](n2cnc3c(NC4CCc5cc6c(cc54)OCO6)ncnc32)[C@H](O)[C@@H]1O (stereo not given in full) | 89.9 | 7.30 | 4539 | -21 | -21 |  |  |
| COc1ccc2c(c1)CCC2Nc1ncnc2c1ncn2[C@@H]1O[C@H](CO)[C@@H](O)[C@H]1O (single isomer, unassigned; isomer b) [listing 2 of 2 here] | 34.8 |  |  |  |  |  |  |
| OC[C@H]1OC(n2cnc3c(NCC4=CCc5ccccc54)ncnc32)[C@H](O)[C@@H]1O (stereo not given in full) | 1.36 | 7.49 | 44.2 | -32 | 26 |  |  |
| OC[C@H]1O[C@@H](n2cnc3c(NC4CCCc5ccccc5C4)ncnc32)[C@H](O)[C@@H]1O (stereo not given in full) | 48.7 | 7.60 | 1234 | -22 | -32 |  |  |
| OC[C@H]1O[C@@H](n2cnc3c(NCC4(O)CCCCc5ccccc54)ncnc32)[C@H](O)[C@@H]1O (stereo not given in full) | 9.8 | 6.56 | 2705 | -14 | <10 |  |  |
| OC[C@H]1OC(n2cnc3c(NCC4=CCCCc5ccccc54)ncnc32)[C@H](O)[C@@H]1O (stereo not given in full) | 4.5 | 6.39 | 1821 | <10 | <10 |  |  |
| CCCOc1ccc2c(c1)CCC2Nc1ncnc2c1ncn2[C@@H]1O[C@H](CO)[C@@H](O)[C@H]1O (stereo not given in full) | 188 | 7.55 | 5302 | -43 | -30 |  |  |
| OC[C@H]1O[C@@H](n2cnc3c(N[C@H]4CCCc5ccccc54)ncnc32)[C@H](O)[C@@H]1O | 13.3 | 6.52 | 3989 | -28 | <10 |  |  |
| COc1ccc2c(c1)C(Nc1ncnc3c1ncn3[C@@H]1O[C@H](CO)[C@@H](O)[C@H]1O)CCC2 (stereo in doubt; 31) [listing 1 of 2 here] | 27 |  |  |  |  |  |  |
| OC[C@H]1OC(n2cnc3c(NC4CCc5ccccc5C4)ncnc32)[C@H](O)[C@@H]1O (stereo not given in full) | 40.3 | 8.08 | 339 | -47 | -44 |  |  |
| COc1ccc2c(c1)C(Nc1ncnc3c1ncn3[C@@H]1O[C@H](CO)[C@@H](O)[C@H]1O)CCC2 (single isomer, unassigned; isomer A) [listing 1 of 2 here] |  | 5.59 | 34060 |  |  | <10 | <10 |
| OC[C@H]1O[C@@H](n2cnc3c(NC4CCc5cc(O)ccc54)ncnc32)[C@H](O)[C@@H]1O (stereo not given in full) | 18.2 | 7.37 | 769 | -17 | -11 |  |  |
| CCCCOc1ccc2c(c1)CCC2Nc1ncnc2c1ncn2[C@@H]1O[C@H](CO)[C@@H](O)[C@H]1O (stereo in doubt; 15) [listing 2 of 2 here] |  | 7.33 | 5922 |  |  | -46 | -28 |
| COc1ccc2c(c1)C(Nc1ncnc3c1ncn3[C@@H]1O[C@H](CO)[C@@H](O)[C@H]1O)CCC2 (stereo in doubt; 31) [listing 2 of 2 here] |  | 7.64 | 619 |  |  | -56 | -40 |
| COc1ccc2c(c1)CCC2Nc1ncnc2c1ncn2[C@@H]1O[C@H](CO)[C@@H](O)[C@H]1O (stereo in doubt; 4) [listing 2 of 2 here] |  | 7.23 | 4350 |  |  | -40 | -33 |
| CCCCOc1ccc2c(c1)CCC2Nc1ncnc2c1ncn2[C@@H]1O[C@H](CO)[C@@H](O)[C@H]1O (single isomer, unassigned; isomer B) [listing 1 of 2 here] |  | 7.32 | 3946 |  |  | -31 | -13 |
| CCCCOc1ccc2c(c1)CCC2Nc1ncnc2c1ncn2[C@@H]1O[C@H](CO)[C@@H](O)[C@H]1O (single isomer, unassigned; isomer A) [listing 2 of 2 here] | 2370 |  |  |  |  |  |  |
| COc1ccc2c(c1)C(Nc1ncnc3c1ncn3[C@@H]1O[C@H](CO)[C@@H](O)[C@H]1O)CCC2 (single isomer, unassigned; isomer A) [listing 2 of 2 here] | 13.2 |  |  |  |  |  |  |
| CCCCOc1ccc2c(c1)CCC2Nc1ncnc2c1ncn2[C@@H]1O[C@H](CO)[C@@H](O)[C@H]1O (single isomer, unassigned; isomer B) [listing 2 of 2 here] | 81.7 |  |  |  |  |  |  |

Source: ChEMBL document CHEMBL1125617, “N6-substituted adenosine receptor agonists: potential antihypertensive agents” (J Med Chem, 1991)
